Test results published in ChEMBL document CHEMBL3044599, “Structure-activity relationship of citrus polymethoxylated flavones and their inhibitory effects on Aspergillus niger” (J Agric Food Chem, 2012).
Activity calls are given as the source filed them. The calls are words filed in the database; no cut-off is given here.

Test system: Aspergillus niger
Experiment: Antifungal activity against Aspergillus niger CICC 2273 assessed as inhibition of mycelial growth by microbroth dilution method
Assay type: functional, organism-based

| SMILES | inhibition |
| --- | --- |
| COc1ccc(-c2cc(=O)c3c(OC)c(OC)c(OC)cc3o2)cc1 | Active |
| COc1ccc(-c2cc(=O)c3c(O)c(OC)c(OC)c(OC)c3o2)cc1OC | Active |
| CC(=O)C[C@H]1O[C@@H](Oc2ccc3c(=O)cc(-c4ccccc4)oc3c2)[C@H](O)[C@@H](O)[C@@H]1O | inactive |
| COc1ccc(-c2oc3c(OC)c(OC)c(OC)c(OC)c3c(=O)c2O)cc1OC | inactive |
| COc1ccc(-c2oc3cc(OC)c(OC)c(OC)c3c(=O)c2OC)cc1OC | Active |
| COc1ccc(-c2cc(=O)c3c(OC)c(OC)c(OC)c(OC)c3o2)cc1OC | Active |
